Experimental data published in US12059422B2 (MEI Pharma, Inc., priority 2011, dated 2024).

Assays:
[1] = target: T1, PI3Kβ (Homo sapiens, UniProt P42338); assay: ELISA assay for PI3Kβ: in-cell ELISA, phosphorylation of AKT (Ser473) in PC-3 cells; assay type: cell-based; details: for IC50: cellular, pAKT (Ser473), PC-3 cells, LPA stimulation, read-out: IC50 p110β; for α/β ratio: ratio of cellular IC50 values, Table 2
T1 construct: endogenous in cells; host or cells: PC-3 (ATCC #CRL-1435)
Protocol: Cellular PI3Kβ activity was determined by measuring the phosphorylation of AKT (Ser473) using an in-cell ELISA assay. PC-3 (prostate carcinoma) cells were obtained from ATCC (ATCC #CRL-1435). Growth medium was DMEM (CellGro #CV-10-013-CV) supplemented with 10% fetal bovine serum, 100 IU/mL penicillin, 100 μg/mL streptomycin, and 1×MEM non-essential amino acids. Phosphate buffered saline (PBS) contained 2.7 M NaCl, 54 mM KCl, 86 mM […] (dibasic, anhydrous), 28 mM […] (monobasic, anhydrous), pH 7.2, 10× stimulation mixture contained 50 μM LPA (Cayman #62215) diluted in serum-free DMEM medium (CellGro #CV-10-013-CV). Compounds for testing were dissolved and serially diluted in 100% DMSO (total of 10 concentrations), then diluted in serum-free DMEM to 2× final assay concentration. 2× fixative solution contained 8% formaldehyde (Amresco #M134) diluted in PBS. Permeabilization solution contained PBS supplemented with 0.1% Triton X-100. Blocking buffer was obtained from LiCor (LiCor #927-40000). Wash buffer contained PBS supplemented with 0.1% Tween-20. Primary antibody solution was rabbit anti-pAKT^S473 monoclonal antibody (Cell Signaling #4060) and mouse anti-total S6 (Santa Cruz #74459) diluted 1:500 and 1:2000, respectively, in blocking buffer. Secondary antibody solution was IRDye 800CW-conjugated goat anti-rabbit IgG (LiCor #926-32211) and IRDye 680LT-conjugated goat anti-mouse IgG (LiCor #926-68020) diluted 1:2000 and 1:1000, respectively, in blocking buffer.
PC-3 cells were subcultured in growth medium and seeded into flat, clear bottom, 96-well plates (Corning #3904) at 16000 cells/well, then incubated overnight in a 37° C., 5% CO2 incubator. Growth medium in plates was replaced with 100 μL/well serum-free DMEM and incubated overnight in a 37° C., 5% CO2 incubator. 50 μL/well of fresh serum-free DMEM was added to plates. Compound treatment was performed by adding 50 μL/well of 2× compound mixture to plates and incubating for 2 hrs at 37° C., 5% CO2, after which 11 μL/well of 10× stimulation mixture was added and plates were incubated for 10 min at 37° C., 5% CO2. Fixation was performed by adding 110 μL/well of 2× fixative solution to plates and incubating for 20 min at room temperature. Permeabilization was performed by replacing fixation solution with 150 μL/well permeabilization solution and incubating for 10 min at room temperature. Permeabilization was repeated (for a total of 2 times). Permeabilization solution was replaced with 100 μL/well blocking buffer and plates were incubated for 1 hr at room temperature, after which 100 μL/well of primary antibody solution was added and plates were incubated overnight at 4° C. Plates were washed with wash buffer, after which 100 μL/well of secondary antibody solution was added to the plates and incubated in the dark for 1 hr at room temperature. Plates were washed with wash buffer, followed by awash with PBS. After completely removing PBS, plates were scanned on the Licor Odyssey Imager. Images quantified using Licor Odyssey application software. IC50 values were determined by curve fitting using a Collaborative Drug Discovery database (www.collaborativedrug.com).

[2] = target: mTOR (Homo sapiens, UniProt P42345); assay: mTOR inhibition (Table 1); assay type: biochemical; details: Table 1, no method described
[3] = target: T2, PI3Kδ (Homo sapiens, UniProt O00329); assay: ELISA assay for PI3Kδ: sandwich ELISA, phosphorylation of AKT (Thr308) in Raji cells; assay type: cell-based; details: for IC50: cellular, pAKT (Thr308), Raji cells, anti-Human IgM stimulation, read-out: IC50 p110δ; for α/δ ratio / β/δ ratio / γ/δ ratio: ratio of cellular IC50 values, Table 2
T2 construct: endogenous in cells; host or cells: Raji (ATCC #CCL-86)
Summary of the method: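 Raji cells, serum-starved 2 hrs, treated with compound (10 concentrations) for 2 hrs at 37° C, then stimulated 30 min with anti-human IgM. Lysates analysed by sandwich ELISA for pAKT Thr308 and total AKT with luminescent read-out. IC50 from curve fitting.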

T2 sequence (O00329 whole entry): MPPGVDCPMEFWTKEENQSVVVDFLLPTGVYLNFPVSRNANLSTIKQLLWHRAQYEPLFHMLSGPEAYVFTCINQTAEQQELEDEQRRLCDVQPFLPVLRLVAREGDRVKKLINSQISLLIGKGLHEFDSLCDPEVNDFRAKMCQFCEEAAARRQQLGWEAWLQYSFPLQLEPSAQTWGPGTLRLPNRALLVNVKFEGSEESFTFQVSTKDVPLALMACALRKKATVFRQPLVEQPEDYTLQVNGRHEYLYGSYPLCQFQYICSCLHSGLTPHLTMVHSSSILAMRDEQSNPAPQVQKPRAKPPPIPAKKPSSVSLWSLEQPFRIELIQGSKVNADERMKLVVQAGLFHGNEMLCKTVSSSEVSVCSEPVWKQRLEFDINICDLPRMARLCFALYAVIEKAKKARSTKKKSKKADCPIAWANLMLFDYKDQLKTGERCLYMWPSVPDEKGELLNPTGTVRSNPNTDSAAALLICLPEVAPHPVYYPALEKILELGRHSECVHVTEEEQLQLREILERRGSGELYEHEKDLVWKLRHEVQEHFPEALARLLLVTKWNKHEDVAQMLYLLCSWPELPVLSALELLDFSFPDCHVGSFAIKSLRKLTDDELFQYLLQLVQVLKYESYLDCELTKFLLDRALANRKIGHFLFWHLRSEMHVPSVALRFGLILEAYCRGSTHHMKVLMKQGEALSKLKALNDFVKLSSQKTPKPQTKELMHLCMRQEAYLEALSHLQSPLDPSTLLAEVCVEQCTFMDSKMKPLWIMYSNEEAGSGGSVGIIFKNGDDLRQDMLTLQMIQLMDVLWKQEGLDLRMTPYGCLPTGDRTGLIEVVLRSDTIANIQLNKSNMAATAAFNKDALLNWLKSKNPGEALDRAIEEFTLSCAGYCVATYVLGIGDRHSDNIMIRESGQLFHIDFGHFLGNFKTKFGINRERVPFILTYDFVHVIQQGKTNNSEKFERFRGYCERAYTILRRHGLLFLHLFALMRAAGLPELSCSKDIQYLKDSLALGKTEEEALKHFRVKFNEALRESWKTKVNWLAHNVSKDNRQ
T2 sequence (P27986 whole entry partner): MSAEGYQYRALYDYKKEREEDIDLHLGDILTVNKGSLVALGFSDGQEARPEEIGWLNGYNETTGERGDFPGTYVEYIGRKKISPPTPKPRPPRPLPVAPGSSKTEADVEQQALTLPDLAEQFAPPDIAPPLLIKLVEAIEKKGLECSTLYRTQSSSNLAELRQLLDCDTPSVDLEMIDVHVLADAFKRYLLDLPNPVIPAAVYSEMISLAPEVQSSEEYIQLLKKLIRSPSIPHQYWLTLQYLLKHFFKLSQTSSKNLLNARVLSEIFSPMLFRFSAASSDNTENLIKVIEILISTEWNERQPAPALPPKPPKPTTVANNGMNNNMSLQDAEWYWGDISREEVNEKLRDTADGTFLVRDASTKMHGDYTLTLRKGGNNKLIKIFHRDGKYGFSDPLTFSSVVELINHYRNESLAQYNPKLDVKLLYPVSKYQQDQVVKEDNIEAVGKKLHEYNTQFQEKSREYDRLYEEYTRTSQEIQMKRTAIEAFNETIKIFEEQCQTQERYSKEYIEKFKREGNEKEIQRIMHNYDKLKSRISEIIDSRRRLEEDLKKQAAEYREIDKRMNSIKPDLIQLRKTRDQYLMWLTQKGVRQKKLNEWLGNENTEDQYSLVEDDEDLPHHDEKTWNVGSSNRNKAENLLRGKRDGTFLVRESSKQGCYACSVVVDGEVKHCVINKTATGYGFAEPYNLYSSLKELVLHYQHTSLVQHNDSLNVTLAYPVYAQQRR
T1 sequence (P42338 whole entry): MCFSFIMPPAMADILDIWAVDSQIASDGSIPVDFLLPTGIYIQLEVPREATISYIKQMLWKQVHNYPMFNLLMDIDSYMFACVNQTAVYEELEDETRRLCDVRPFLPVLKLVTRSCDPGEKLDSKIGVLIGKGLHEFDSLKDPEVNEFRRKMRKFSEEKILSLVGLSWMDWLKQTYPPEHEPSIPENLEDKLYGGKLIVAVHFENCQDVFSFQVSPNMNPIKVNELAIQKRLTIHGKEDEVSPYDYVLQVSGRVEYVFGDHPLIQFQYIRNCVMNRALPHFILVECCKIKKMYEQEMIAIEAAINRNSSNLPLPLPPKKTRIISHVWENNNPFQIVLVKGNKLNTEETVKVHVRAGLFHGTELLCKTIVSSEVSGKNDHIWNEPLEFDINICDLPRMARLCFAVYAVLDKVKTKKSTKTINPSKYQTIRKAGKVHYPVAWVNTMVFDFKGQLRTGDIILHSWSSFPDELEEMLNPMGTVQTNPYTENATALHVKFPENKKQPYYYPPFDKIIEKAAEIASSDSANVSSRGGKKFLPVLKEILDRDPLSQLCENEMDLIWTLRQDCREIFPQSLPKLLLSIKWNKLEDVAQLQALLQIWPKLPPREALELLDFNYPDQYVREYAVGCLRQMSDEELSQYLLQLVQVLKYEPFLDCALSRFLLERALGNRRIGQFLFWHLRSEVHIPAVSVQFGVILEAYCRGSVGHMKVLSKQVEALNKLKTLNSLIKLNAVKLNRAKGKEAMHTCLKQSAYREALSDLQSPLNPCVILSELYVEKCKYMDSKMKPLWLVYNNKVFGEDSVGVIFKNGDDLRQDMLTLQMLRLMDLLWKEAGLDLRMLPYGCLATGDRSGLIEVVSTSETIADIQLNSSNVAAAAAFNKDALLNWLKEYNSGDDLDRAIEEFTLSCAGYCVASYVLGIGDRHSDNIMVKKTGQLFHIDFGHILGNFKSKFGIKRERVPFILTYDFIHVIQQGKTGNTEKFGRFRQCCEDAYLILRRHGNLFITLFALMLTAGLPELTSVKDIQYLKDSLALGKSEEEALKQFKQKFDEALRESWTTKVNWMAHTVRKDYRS
T1 sequence (P27986 whole entry partner): as the sequence (P27986 whole entry partner) above

SMILES	IC50 [1]	α/β ratio [1]	IC50 [2]	IC50 [3]	α/δ ratio [3]	β/δ ratio [3]	γ/δ ratio [3]
CN1CCN(c2cc(-c3ccccc3CC(C)(C)Nc3nc(N4CCOCC4)nc(-n4c(C(F)F)nc5ccccc54)n3)ccn2)CC1 [Compound A64, 4-(2-(difluoromethyl)-1H-benzo[d]imidazol-1-yl)-N-(2-methyl-1-(2-(2-(4-methylpiperazin-1-yl)pyridin-4-yl)phenyl)propan-2-yl)-6-morpholino-1,3,5-triazin-2-amine]	≤ 0.1 µM	A’	> 0.5 µM	≤ 0.1 µM	A’	A’	A’
CC(C)(Cc1ccccc1-c1cccc(CN2CCOCC2)c1)Nc1nc(N2CCOCC2)nc(-n2c(C(F)F)nc3ccccc32)n1 [Compound A65, 4-(2-(difluoromethyl)-1H-benzo[d]imidazol-1-yl)-N-(2-methyl-1-(3′-(morpholinomethyl)biphenyl-2-yl)propan-2-yl)-6-morpholino-1,3,5-triazin-2-amine]	≤ 0.1 µM	A’	> 0.5 µM	≤ 0.1 µM	A’	B’	A’
CC(C)(Cc1ccccc1C1CCNCC1)Nc1nc(N2CCOCC2)nc(-n2c(C(F)F)nc3ccccc32)n1 [Compound A68, 4-(2-(difluoromethyl)-1H-benzo[d]imidazol-1-yl)-N-(2-methyl-1-(2-(piperidin-4-yl)phenyl)propan-2-yl)-6-morpholino-1,3,5-triazin-2-amine]	≤ 0.1 µM	A’	> 0.5 µM	≤ 0.1 µM	A’	A’	A’
CCN1CCC(c2ccccc2CC(C)(C)Nc2nc(N3CCOCC3)nc(-n3c(C(F)F)nc4ccccc43)n2)CC1 [Compound A70, 4-(2-(difluoromethyl)-1H-benzo[d]imidazol-1-yl)-N-(1-(2-(1-ethylpiperidin-4-yl)phenyl)-2-methylpropan-2-yl)-6-morpholino-1,3,5-triazin-2-amine]	≤ 0.1 µM	A’	> 0.5 µM	≤ 0.1 µM	A’	A’	A’
CC(C)N1CCC(c2ccccc2CC(C)(C)Nc2nc(N3CCOCC3)nc(-n3c(C(F)F)nc4ccccc43)n2)CC1 [Compound A71, 4-(2-(difluoromethyl)-1H-benzo[d]imidazol-1-yl)-N-(1-(2-(1-isopropylpiperidin-4-yl)phenyl)-2-methylpropan-2-yl)-6-morpholino-1,3,5-triazin-2-amine]	≤ 0.1 µM	A’	> 0.5 µM	≤ 0.1 µM	A’	A’	A’
CC(=O)N1CCC(c2ccccc2CC(C)(C)Nc2nc(N3CCOCC3)nc(-n3c(C(F)F)nc4ccccc43)n2)CC1 [Compound A72, 4-(2-(difluoromethyl)-1H-benzo[d]imidazol-1-yl)-N-(2-methyl-1-(2-(1-acetylpiperidin-4-yl)phenyl)propan-2-yl)-6-morpholino-1,3,5-triazin-2-amine]	≤ 0.1 µM	A’	> 0.5 µM	≤ 0.1 µM	A’	A’	A’
CC(C)(Cc1ccccc1C1CCN(S(C)(=O)=O)CC1)Nc1nc(N2CCOCC2)nc(-n2c(C(F)F)nc3ccccc32)n1 [Compound A73, 4-(2-(difluoromethyl)-1H-benzo[d]imidazol-1-yl)-N-(2-methyl-1-(2-(1-(methylsulfonyl)piperidin-4-yl)phenyl)propan-2-yl)-6-morpholino-1,3,5-triazin-2-amine]	≤ 0.1 µM	A’	> 0.5 µM	≤ 0.1 µM	A’	C’	A’

The remaining lines, values ahead:

IC50 [1]	α/β ratio [1]	IC50 [2]	IC50 [3]	α/δ ratio [3]	β/δ ratio [3]	γ/δ ratio [3]	SMILES
0.1 to 0.2 µM	A’	> 0.5 µM	≤ 0.1 µM	A’	A’	A’	CC(C)(Cc1ccccc1-c1ccccc1F)Nc1nc(N2CCOCC2)nc(-n2c(C(F)F)nc3ccccc32)n1 [Compound A59, 4-(2-(difluoromethyl)-1H-benzo[d]imidazol-1-yl)-N-(1-(2′-fluorobiphenyl-2-yl)-2-methylpropan-2-yl)-6-morpholino-1,3,5-triazin-2-amine]
0.2 to 0.5 µM	A’	> 0.5 µM	≤ 0.1 µM	A’	A’	A’	Cc1ccccc1-c1ccccc1CC(C)(C)Nc1nc(N2CCOCC2)nc(-n2c(C(F)F)nc3ccccc32)n1 [Compound A60, 4-(2-(difluoromethyl)-1H-benzo[d]imidazol-1-yl)-N-(2-methyl-1-(2′-methylbiphenyl-2-yl)propan-2-yl)-6-morpholino-1,3,5-triazin-2-amine]
0.1 to 0.2 µM	A’	> 0.5 µM	≤ 0.1 µM	A’	A’	A’	CC(C)(Cc1ccccc1-c1ccccc1Cl)Nc1nc(N2CCOCC2)nc(-n2c(C(F)F)nc3ccccc32)n1 [Compound A61, 4-(2-(difluoromethyl)-1H-benzo[d]imidazol-1-yl)-N-(1-(6′-chlorobiphenyl-2-yl)-2-methylpropan-2-yl)-6-morpholino-1,3,5-triazin-2-amine]
≤ 0.1 µM	A’	> 0.5 µM	≤ 0.1 µM	A’	A’	A’	CC(C)(Cc1ccccc1-c1cccnc1F)Nc1nc(N2CCOCC2)nc(-n2c(C(F)F)nc3ccccc32)n1 [Compound A62]
≤ 0.1 µM	A’	> 0.5 µM	≤ 0.1 µM	A’	A’	A’	CC(C)(Cc1ccccc1-c1cncnc1)Nc1nc(N2CCOCC2)nc(-n2c(C(F)F)nc3ccccc32)n1 [Compound A63, 4-(2-(difluoromethyl)-1H-benzo[d]imidazol-1-yl)-N-(2-methyl-1-(2-(pyrimidin-5-yl)phenyl)propan-2-yl)-6-morpholino-1,3,5-triazin-2-amine]
0.1 to 0.2 µM	A’	> 0.5 µM	≤ 0.1 µM	A’	A’	A’	COc1cccc(-c2ccccc2CC(C)(C)Nc2nc(N3CCOCC3)nc(-n3c(C(F)F)nc4ccccc43)n2)c1 [Compound A66, 4-(2-(difluoromethyl)-1H-benzo[d]imidazol-1-yl)-N-(1-(3′-methoxybiphenyl-2-yl)-2-methylpropan-2-yl)-6-morpholino-1,3,5-triazin-2-amine]
0.2 to 0.5 µM	A’	> 0.5 µM	≤ 0.1 µM	A’	A’	A’	COc1ccc(-c2ccccc2CC(C)(C)Nc2nc(N3CCOCC3)nc(-n3c(C(F)F)nc4ccccc43)n2)cc1 [Compound A67, 4-(2-(difluoromethyl)-1H-benzo[d]imidazol-1-yl)-N-(1-(4′-methoxybiphenyl-2-yl)-2-methylpropan-2-yl)-6-morpholino-1,3,5-triazin-2-amine]
